Where two headings read alike, the source gives them in different places. Bounds are passed on as bounds.

Holding throughout (format): cell-based, HCV
The subject of assay [1] is genotype 1a replicon (1a-H77). The assay is described as follows: 1a stable replicon (luciferase reporter). The settings on record: HuH-7 cells, 5% FBS. In general terms: A replicon is a self-replicating genome or part of one, used to study replication in cells.
Assay [2] has as its system genotype 1b replicon (1b-Con1, 1b-N). Briefly: 1b stable replicon (luciferase reporter). The settings on record: HuH-7 cells, 5% FBS.
Assay [3] relates to genotype 1a transient replicon (1a-H77). Briefly: 1a transient replicon (luciferase reporter). The following applies: HuH-7 cells, 5% FBS.
The subject of assay [4] is genotype 1b transient replicon. The assay is described as follows: 1b transient replicon (luciferase reporter). The settings on record: HuH-7 cells, 5% FBS.
Assay [5] deals with genotype 3a NS3 gene in transient replicon. Briefly: 3a transient replicon (luciferase reporter).
Where [6] appears, read: Hepatitis C virus, Huh-7, luciferase reporter.
[7] abbreviates: Hepatitis C virus, Huh-7, read-out: 3a transient replicon (nM).

On to `Cc1cc(C(=O)N[C@H]2CCCCC/C=C\[C@@H]3C[C@@]3(C(=O)NS(=O)(=O)C3CC3)NC(=O)[C@@H]3C[C@@H](Oc4nc5ccccc5c5cc(F)ccc45)CN3C2=O)no1`, for which the EC50 in assay [1] (setting [6]) is 100 to 500 pM; in assay [2] (Hepatitis C virus) it was 100 to 500 pM; in assay [3] (Hepatitis C virus), < 100 pM; in assay [4] (Hepatitis C virus) it was 100 to 500 pM; in assay [5] (setting [7]), > 1 nM.
Take `CC1(S(=O)(=O)NC(=O)[C@@]23C[C@H]2/C=C\CCCCC[C@H](NC(=O)c2ccon2)C(=O)N2C[C@H](Oc4nc5cc(F)ccc5c5cc(F)ccc45)C[C@H]2C(=O)N3)CC1`: the EC50 in assay [1] (setting [6]) was 100 to 500 pM; in assay [2] (Hepatitis C virus), 100 to 500 pM; in assay [3] (Hepatitis C virus) it was < 100 pM; in assay [4] (Hepatitis C virus) it was < 100 pM; in assay [5] (setting [7]), > 1 nM.
On to `O=C(N[C@H]1CCCCC/C=C\[C@@H]2C[C@@]2(C(=O)NS(=O)(=O)C2CC2)NC(=O)[C@@H]2C[C@@H](Oc3nc4ccccc4c4cc(F)ccc34)CN2C1=O)c1cncs1`, for which the EC50 in assay [1] (setting [6]) was 500 to 1000 pM; in assay [2] (Hepatitis C virus), 100 to 500 pM; in assay [3] (Hepatitis C virus) it was 100 to 500 pM; in assay [4] (Hepatitis C virus) it was 100 to 500 pM; in assay [5] (setting [7]), > 1 nM.
In the case of `COc1ccc2c(c1)nc(O[C@@H]1C[C@H]3C(=O)N[C@]4(C(=O)NS(=O)(=O)C5CC5)C[C@H]4/C=C\CCCCC[C@H](NC(=O)c4ccn(C)n4)C(=O)N3C1)c1ccc(F)cc12`, the EC50 in assay [1] (setting [6]) was 100 to 500 pM; in assay [2] (Hepatitis C virus), 100 to 500 pM; in assay [3] (Hepatitis C virus) it was 100 to 500 pM; in assay [4] (Hepatitis C virus) it was 500 to 1000 pM; in assay [5] (setting [7]), 0.5 to 1 nM.
Turning to `Cn1ccc(C(=O)N[C@H]2CCCCC/C=C\[C@@H]3C[C@@]3(C(=O)NS(=O)(=O)C3(C)CC3)NC(=O)[C@@H]3C[C@@H](Oc4nc5cc(OC(F)(F)F)ccc5c5ccccc45)CN3C2=O)n1`, the EC50 in assay [1] (setting [6]) was 100 to 500 pM; in assay [2] (Hepatitis C virus), < 100 pM; in assay [3] (Hepatitis C virus), < 100 pM; in assay [4] (Hepatitis C virus), 100 to 500 pM; in assay [5] (setting [7]), 0.1 to 0.5 nM.
As for `Cn1ccc(C(=O)N[C@H]2CCCCC/C=C\[C@@H]3C[C@@]3(C(=O)NS(=O)(=O)C3CC3)NC(=O)[C@@H]3C[C@@H](Oc4nc5cc(F)ccc5c5cc(OC(F)(F)F)ccc45)CN3C2=O)n1`, the EC50 in assay [1] (setting [6]) is 500 to 1000 pM; in assay [2] (Hepatitis C virus), < 100 pM; in assay [3] (Hepatitis C virus) it was 100 to 500 pM; in assay [4] (Hepatitis C virus) it was 100 to 500 pM; in assay [5] (setting [7]), > 1 nM.
`O=C(N[C@H]1CCCCC/C=C\[C@@H]2C[C@@]2(C(=O)NS(=O)(=O)C2CC2)NC(=O)[C@@H]2C[C@@H](Oc3nc4cc(F)ccc4c4cc(F)ccc34)CN2C1=O)c1cscn1` [drawing 124]: the EC50 was 500 to 1000 pM in assay [1] (setting [6]); 100 to 500 pM in assay [2] (Hepatitis C virus); 100 to 500 pM in assay [3] (Hepatitis C virus); 100 to 500 pM in assay [4] (Hepatitis C virus); > 1 nM in assay [5] (setting [7]).
As for `O=C(N[C@H]1CCCCC/C=C\[C@@H]2C[C@@]2(C(=O)NS(=O)(=O)C2CC2)NC(=O)[C@@H]2C[C@@H](Oc3nc4cc(F)ccc4c4cc(F)ccc34)CN2C1=O)c1cscn1` [drawing 125], the EC50 is > 1000 pM in assay [1] (luciferase reporter); 100 to 500 pM in assay [2]; 100 to 500 pM in assay [3]; 100 to 500 pM in assay [4]; > 1 nM in assay [5] (read-out: 3a transient replicon, luciferase reporter, HuH-7 cells, 5% FBS).

Source of the values: patent publication US8951964B2, “Phenanthridine macrocyclic hepatitis C serine protease inhibitors” (priority 2010, dated 2015).
